Results reported in patent publication US6812236B2, “Compounds useful in therapy” (Pfizer Inc., priority 1999, dated 2004).

These compounds were tested against T1, mu opioid receptor (Canis lupus familiaris, UniProt A0A0F6TMT6) (assay: mu opioid receptor binding assay in dog brain membranes (3H-DAMGO displacement)). Conditions: dog brain tissue, read-out: Ki values for the μ receptor.
T1 construct: Laboratory bred beagles were used as a source of dog brain tissue; from tissue; host or cells: beagle dog brain without cerebellum, washed membrane pellet
T1 sequence (A0A0F6TMT6 1-401): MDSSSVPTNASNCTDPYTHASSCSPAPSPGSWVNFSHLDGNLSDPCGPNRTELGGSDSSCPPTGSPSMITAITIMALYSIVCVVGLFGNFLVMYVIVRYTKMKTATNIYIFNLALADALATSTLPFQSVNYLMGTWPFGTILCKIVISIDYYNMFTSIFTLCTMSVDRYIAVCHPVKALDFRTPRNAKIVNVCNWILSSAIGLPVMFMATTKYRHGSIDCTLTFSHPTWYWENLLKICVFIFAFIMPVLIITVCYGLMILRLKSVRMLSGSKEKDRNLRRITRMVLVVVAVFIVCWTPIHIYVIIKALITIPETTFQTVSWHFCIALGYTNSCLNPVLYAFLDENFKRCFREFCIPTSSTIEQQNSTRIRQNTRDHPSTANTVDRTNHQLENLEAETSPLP
Protocol: The assays were conducted by the following procedure.
Laboratory bred beagles were used as a source of dog brain tissue. Animals were euthanised, their brains removed and the cerebellum discarded. The remaining brain tissue was sectioned into small pieces approximately 3 g in weight and homogenised in 50 mM Tris pH 7.4 buffer at 4° C. using a Kinematica Polytron™ tissue homogeniser. The resulting homogenate was centrifuged at 48,400× g for 10 minutes and the supernatant discarded. The pellet was resuspended in Tris buffer and incubated at 37° C. for 10 minutes. Centrifugation, resuspension and incubation steps were repeated twice more, and the final pellet was resuspended in Tris buffer and stored at −80° C. Membrane material prepared in this manner could be stored for up to four weeks prior to use.
For mu assays, increasing concentrations of experimental compound, (5×10^−12 to 10^−5 M), Tris buffer and ^3H ligand, ([D-Ala^2,N-Me-Phe^4,Gly-ol^5]-Enkephalin, DAMGO), were combined in polystyrene tubes. The reaction was initiated by the addition of tissue, and the mixture was incubated at room temperature for 90 minutes. The reaction was terminated by rapid filtration using a Brandel Cell Harvester™ through Betaplate™ GF/A glass fibre filters pre-soaked in 50 mM Tris pH 7.4, 0.1% polyethylenimine buffer. The filters were then washed three times with 0.5 mL ice-cold Tris pH 7.4 buffer. Washed filters were placed in bags and Starscint™ scintillant added. Bags containing the filters and scintillant were heat sealed and counted by a Betaplate™ 1204 beta counter.
Duplicate samples were run for each experimental compound and the data generated was analysed using IC50 analysis software in Graphpad Prism. Ki values were calculated using Graphpad Prism according to the following formula: […]
where IC50 is the concentration at which 50% of the ^3H ligand is displaced by the test compound and KD is the dissociation constant for the ^3H ligand at the receptor site.

| Structure (SMILES) | Ki [µM] |
| --- | --- |
| CCNC(=O)c1cccc(C2(C)CCN(CCCCC(C)C)CC2C)c1 (stereo not shown) [Example 18, 1-(5-Methylhexyl)-3,4-dimethyl-4-(3-(N-ethyl)-amidophenyl)piperidine] | ≤ 4 |
| CCNC(=O)c1cccc(C2(C)CCN(CCCCCC#N)CC2C)c1 (stereo not shown) [Example 20, 1-(5-Cyanopentyl)-3,4-dimethyl-4-(3-(N-ethyl)-amidophenyl)piperidine] | ≤ 4 |
| CCCCCCN1CCC(C)(c2cccc(C(=O)NCC)c2)C(C)C1 (stereo not shown) [Example 8, 1-Hexyl-3,4-dimethyl-4-(3-(N-ethyl)amidophenyl)-piperidine] | ≤ 4 |
| CCCCCCN1CCC(C)(c2cccc(C(=O)NC(C)C)c2)C(C)C1 (stereo not shown) [Example 4, 1-Hexyl-3,4-dimethyl-4-(3-(N-isopropyl)amidophenyl)-piperidine] | ≤ 4 |
